Results taken from patent publication US20080274892A1, “Novel Haloalkylsulfonanilide Derivative, Herbicide, and Method of Use Thereof” (priority 2005, published 2008).

Tests used:
[1] = test system: paddy rice plant (cultivar: Nihonbare); assay: Test Example 3: phytotoxicity test for transplanted paddy rice plant; type: in vivo; settings: 21 days after treatment; for Phytotoxicity to paddy rice: transplanted rice
Procedure: (§1) The standard of judgment for herbicidal efficacy (degree of growth inhibition) and phytotoxicity 4 . . . 90%-100% of herbicidal efficacy or phytotoxicity 3 . . . 70%-89% of herbicidal efficacy or phytotoxicity 2 . . . 40%-69% of herbicidal efficacy or phytotoxicity 1 . . . 1%-39% of herbicidal efficacy or phytotoxicity 0 . . . 0% of herbicidal efficacy or phytotoxicity
A 75 cm^2 plastic pot was filled with soil (clay loam), and water was added so that the soil was submerged under 5 cm depth of water. Two paddy rice plant (cultivar: Nihonbare) at two leaves stage were transplanted at the depth of 1 cm and kept in a hot house. […] The pot was kept in a hot house for 21 days after the treatment and the phytotoxicity was investigated and evaluated according to the standard in Test Example 1 by comparing with the untreated control. “-” in the table represents test not done.

false pimpernel [2] = assay: Test Example 2: herbicidal efficacy on rice paddy weeds post-emergence; type: in vivo, Lindernia pyxidaria; settings: 21 days after treatment
Description: as §1
(§2) A 75 cm^2 plastic pot was filled with soil (clay loam) and planted seeds of barnyard glass and bulrush which is a rice paddy weed. After covering the top with 75 cm^3 soil mixed with seeds of false pimpernel, the pot was filled with water so that the soil submerged under 5 cm depth of water and kept in a hot house. […] The pot was kept in a hot house for 21 days after the treatment and the herbicidal efficacy was investigated and evaluated according to the standard in Test Example 1 by comparing with the untreated control. “-” in the table represents test not done.

bulrush [3] = assay: as above; type: in vivo, Scirpus juncoides; settings: 21 days after treatment
Description: as §1, §2

bulrush [4] = assay: Test Example 1: herbicidal efficacy on rice paddy weeds pre-emergence; type: in vivo, Scirpus juncoides; settings: 21 days
Procedure: (§3) A 75 cm^2 plastic pot was filled with soil (clay loam) and planted seeds of bulrush which is a rice paddy weed. After covering the top with 75 cm^3 soil mixed with seeds of false pimpernel, the pot was filled with water so that the soil submerged under 5 cm depth of water. The predetermined effective dosage ([…]) of a formulation containing the compound of the present invention prepared according to Formulation Example 1-4 as an active ingredient was diluted in water and added to the pot water surface dropwise. The pot was kept in a hot house for 21 days and the herbicidal efficacy was investigated. The herbicidal efficacy was evaluated according to the following standard by comparing with untreated control. “-” in the table represents test not done.
as §1

false pimpernel [5] = assay: as above; type: in vivo, Lindernia pyxidaria; settings: 21 days
Procedure: as §3, §1

[6] = dosage 1000 g/ha active ingredient, post-emergence treatment at one leaf stage, vs untreated control
[7] = dosage 1000 g/ha, treated 5 days after transplantation
[8] = dosage 1000 g/ha, post-emergence, one leaf stage
[9] = dosage 300 g/ha, post-emergence, one leaf stage

COCOc1cccc(CN2CC(C)(C)OC2=O)c1N(C(=O)OCC(C)C)S(=O)(=O)C(F)(F)F [1-213]
Phytotoxicity to paddy rice (grade) ([1]; dosage 1000 g/ha active ingredient, treated 5 days after transplantation, vs untreated control): 1 (1%-39% of herbicidal efficacy or phytotoxicity)
False pimpernel post (herbicidal efficacy grade) (false pimpernel [2]; [6]): 2 (40%-69% of herbicidal efficacy or phytotoxicity)
Bulrush post (herbicidal efficacy grade) (bulrush [3]; [6]): 4 (90%-100% of herbicidal efficacy or phytotoxicity)
Bulrush pre (herbicidal efficacy grade) (bulrush [4]; dosage 1000 g/ha active ingredient, vs untreated control): 4 (90%-100% of herbicidal efficacy or phytotoxicity)

COCC1CN(Cc2ccccc2NS(=O)(=O)C(F)(F)F)C(=O)O1 (stereo not shown) [Compound 1-35]
Phytotoxicity to paddy rice [1, 7]: 1 (1%-39% of herbicidal efficacy or phytotoxicity)
False pimpernel post (herbicidal efficacy grade) (false pimpernel [2]; [8]): 4 (90%-100% of herbicidal efficacy or phytotoxicity)
False pimpernel pre (herbicidal efficacy grade) (false pimpernel [5]; dosage 1000 g/ha): 4 (90%-100% of herbicidal efficacy or phytotoxicity)
Bulrush post (herbicidal efficacy grade) (bulrush [3]; [8]): 4 (90%-100% of herbicidal efficacy or phytotoxicity)
Bulrush pre (herbicidal efficacy grade) (bulrush [4]; dosage 1000 g/ha): 4 (90%-100% of herbicidal efficacy or phytotoxicity)

CC1(C)CN(Cc2ccccc2N(C(=O)OCc2ccccc2)S(=O)(=O)C(F)(F)F)C(=O)O1 [Compound 1-83]
Phytotoxicity to paddy rice ([1]; dosage 300 g/ha): 0 (0% of herbicidal efficacy or phytotoxicity)
False pimpernel post (herbicidal efficacy grade) (false pimpernel [2]; [9]): 1 (1%-39% of herbicidal efficacy or phytotoxicity)
False pimpernel pre (herbicidal efficacy grade) (false pimpernel [5]; dosage 300 g/ha): 1 (1%-39% of herbicidal efficacy or phytotoxicity)
Bulrush post (herbicidal efficacy grade) (bulrush [3]; [9]): 4 (90%-100% of herbicidal efficacy or phytotoxicity)
Bulrush pre (herbicidal efficacy grade) (bulrush [4]; dosage 300 g/ha): 4 (90%-100% of herbicidal efficacy or phytotoxicity)

CCCCCCCCCCCCCCCCOC(=O)N(c1ccccc1CN1CC(C)(C)OC1=O)S(=O)(=O)C(F)(F)F [Compound 1-84]
Phytotoxicity to paddy rice ([1]; dosage 300 g/ha): 1 (1%-39% of herbicidal efficacy or phytotoxicity)
False pimpernel post (herbicidal efficacy grade) (false pimpernel [2]; [9]): 4 (90%-100% of herbicidal efficacy or phytotoxicity)
False pimpernel pre (herbicidal efficacy grade) (false pimpernel [5]; dosage 300 g/ha): 4 (90%-100% of herbicidal efficacy or phytotoxicity)
Bulrush post (herbicidal efficacy grade) (bulrush [3]; [9]): 3 (70%-89% of herbicidal efficacy or phytotoxicity)
Bulrush pre (herbicidal efficacy grade) (bulrush [4]; dosage 300 g/ha): 4 (90%-100% of herbicidal efficacy or phytotoxicity)

O=C1OC2(CC2)CN1Cc1ccccc1NS(=O)(=O)C(F)(F)F [Compound 1-88]
Phytotoxicity to paddy rice ([1]; dosage 300 g/ha): 1 (1%-39% of herbicidal efficacy or phytotoxicity)
False pimpernel post (herbicidal efficacy grade) (false pimpernel [2]; [9]): 4 (90%-100% of herbicidal efficacy or phytotoxicity)
False pimpernel pre (herbicidal efficacy grade) (false pimpernel [5]; dosage 300 g/ha): 4 (90%-100% of herbicidal efficacy or phytotoxicity)
Bulrush post (herbicidal efficacy grade) (bulrush [3]; [9]): 4 (90%-100% of herbicidal efficacy or phytotoxicity)
Bulrush pre (herbicidal efficacy grade) (bulrush [4]; dosage 300 g/ha): 4 (90%-100% of herbicidal efficacy or phytotoxicity)

CC(C)COC(=O)N(c1ccccc1CN1CC(C)(c2ccccc2)OC1=O)S(=O)(=O)C(F)(F)F (stereo not shown) [Compound 1-141]
Phytotoxicity to paddy rice ([1]; dosage 300 g/ha): 1 (1%-39% of herbicidal efficacy or phytotoxicity)
False pimpernel post (herbicidal efficacy grade) (false pimpernel [2]; [9]): 4 (90%-100% of herbicidal efficacy or phytotoxicity)
False pimpernel pre (herbicidal efficacy grade) (false pimpernel [5]; dosage 300 g/ha): 4 (90%-100% of herbicidal efficacy or phytotoxicity)
Bulrush post (herbicidal efficacy grade) (bulrush [3]; [9]): 4 (90%-100% of herbicidal efficacy or phytotoxicity)
Bulrush pre (herbicidal efficacy grade) (bulrush [4]; dosage 300 g/ha): 3 (70%-89% of herbicidal efficacy or phytotoxicity)

CC(C)COC(=O)N(c1ccccc1CN1CC(C)(C2CCCCC2)OC1=O)S(=O)(=O)C(F)(F)F (stereo not shown) [Compound 1-156]
Phytotoxicity to paddy rice ([1]; dosage 300 g/ha): 1 (1%-39% of herbicidal efficacy or phytotoxicity)
False pimpernel post (herbicidal efficacy grade) (false pimpernel [2]; [9]): 4 (90%-100% of herbicidal efficacy or phytotoxicity)
False pimpernel pre (herbicidal efficacy grade) (false pimpernel [5]; dosage 300 g/ha): 4 (90%-100% of herbicidal efficacy or phytotoxicity)
Bulrush post (herbicidal efficacy grade) (bulrush [3]; [9]): 4 (90%-100% of herbicidal efficacy or phytotoxicity)
Bulrush pre (herbicidal efficacy grade) (bulrush [4]; dosage 300 g/ha): 4 (90%-100% of herbicidal efficacy or phytotoxicity)

CC(C)=CC1(C)CN(Cc2ccccc2NS(=O)(=O)C(F)(F)F)C(=O)O1 (stereo not shown) [Compound 1-164]
Phytotoxicity to paddy rice [1, 7]: 1 (1%-39% of herbicidal efficacy or phytotoxicity)
False pimpernel post (herbicidal efficacy grade) (false pimpernel [2]; [8]): 4 (90%-100% of herbicidal efficacy or phytotoxicity)
False pimpernel pre (herbicidal efficacy grade) (false pimpernel [5]; dosage 1000 g/ha): 4 (90%-100% of herbicidal efficacy or phytotoxicity)
Bulrush post (herbicidal efficacy grade) (bulrush [3]; [8]): 4 (90%-100% of herbicidal efficacy or phytotoxicity)
Bulrush pre (herbicidal efficacy grade) (bulrush [4]; dosage 1000 g/ha): 4 (90%-100% of herbicidal efficacy or phytotoxicity)

CC(C)=CC1(C)CN(Cc2ccccc2N(C(=O)OCC(C)C)S(=O)(=O)C(F)(F)F)C(=O)O1 (stereo not shown) [Compound 1-165]
Phytotoxicity to paddy rice [1, 7]: 1 (1%-39% of herbicidal efficacy or phytotoxicity)
False pimpernel post (herbicidal efficacy grade) (false pimpernel [2]; [8]): 4 (90%-100% of herbicidal efficacy or phytotoxicity)
False pimpernel pre (herbicidal efficacy grade) (false pimpernel [5]; dosage 1000 g/ha): 4 (90%-100% of herbicidal efficacy or phytotoxicity)
Bulrush post (herbicidal efficacy grade) (bulrush [3]; [8]): 4 (90%-100% of herbicidal efficacy or phytotoxicity)
Bulrush pre (herbicidal efficacy grade) (bulrush [4]; dosage 1000 g/ha): 4 (90%-100% of herbicidal efficacy or phytotoxicity)

COC(=O)N(c1ccccc1CN1CC(C)(C=C(C)C)OC1=O)S(=O)(=O)C(F)(F)F (stereo not shown) [Compound 1-166]
Phytotoxicity to paddy rice [1, 7]: 2 (40%-69% of herbicidal efficacy or phytotoxicity)
False pimpernel post (herbicidal efficacy grade) (false pimpernel [2]; [8]): 4 (90%-100% of herbicidal efficacy or phytotoxicity)
False pimpernel pre (herbicidal efficacy grade) (false pimpernel [5]; dosage 1000 g/ha): 4 (90%-100% of herbicidal efficacy or phytotoxicity)
Bulrush post (herbicidal efficacy grade) (bulrush [3]; [8]): 4 (90%-100% of herbicidal efficacy or phytotoxicity)
Bulrush pre (herbicidal efficacy grade) (bulrush [4]; dosage 1000 g/ha): 4 (90%-100% of herbicidal efficacy or phytotoxicity)

CC1(COCc2ccccc2)CN(Cc2ccccc2NS(=O)(=O)C(F)(F)F)C(=O)O1 (stereo not shown) [Compound 1-173]
Phytotoxicity to paddy rice [1, 7]: 1 (1%-39% of herbicidal efficacy or phytotoxicity)
False pimpernel post (herbicidal efficacy grade) (false pimpernel [2]; [8]): 4 (90%-100% of herbicidal efficacy or phytotoxicity)
False pimpernel pre (herbicidal efficacy grade) (false pimpernel [5]; dosage 1000 g/ha): 4 (90%-100% of herbicidal efficacy or phytotoxicity)
Bulrush post (herbicidal efficacy grade) (bulrush [3]; [8]): 4 (90%-100% of herbicidal efficacy or phytotoxicity)
Bulrush pre (herbicidal efficacy grade) (bulrush [4]; dosage 1000 g/ha): 4 (90%-100% of herbicidal efficacy or phytotoxicity)

CC1(C)OC1C1(C)CN(Cc2ccccc2NS(=O)(=O)C(F)(F)F)C(=O)O1 (stereo not shown) [Compound 1-176]
Phytotoxicity to paddy rice [1, 7]: 1 (1%-39% of herbicidal efficacy or phytotoxicity)
False pimpernel post (herbicidal efficacy grade) (false pimpernel [2]; [8]): 4 (90%-100% of herbicidal efficacy or phytotoxicity)
False pimpernel pre (herbicidal efficacy grade) (false pimpernel [5]; dosage 1000 g/ha): 4 (90%-100% of herbicidal efficacy or phytotoxicity)
Bulrush post (herbicidal efficacy grade) (bulrush [3]; [8]): 4 (90%-100% of herbicidal efficacy or phytotoxicity)
Bulrush pre (herbicidal efficacy grade) (bulrush [4]; dosage 1000 g/ha): 4 (90%-100% of herbicidal efficacy or phytotoxicity)

CC1OC(=O)N(Cc2ccccc2NS(=O)(=O)C(F)(F)F)C1=O (stereo not shown) [Compound 1-190]
Phytotoxicity to paddy rice ([1]; dosage 300 g/ha): 0 (0% of herbicidal efficacy or phytotoxicity)
False pimpernel post (herbicidal efficacy grade) (false pimpernel [2]; [9]): 2 (40%-69% of herbicidal efficacy or phytotoxicity)
False pimpernel pre (herbicidal efficacy grade) (false pimpernel [5]; dosage 300 g/ha): 4 (90%-100% of herbicidal efficacy or phytotoxicity)
Bulrush post (herbicidal efficacy grade) (bulrush [3]; [9]): 4 (90%-100% of herbicidal efficacy or phytotoxicity)
Bulrush pre (herbicidal efficacy grade) (bulrush [4]; dosage 300 g/ha): 4 (90%-100% of herbicidal efficacy or phytotoxicity)

CC(C)COC(=O)N(c1ccccc1CN1C(=O)OC(C)C1=O)S(=O)(=O)C(F)(F)F (stereo not shown) [Compound 1-191]
Phytotoxicity to paddy rice ([1]; dosage 300 g/ha): 0 (0% of herbicidal efficacy or phytotoxicity)
False pimpernel post (herbicidal efficacy grade) (false pimpernel [2]; [9]): 2 (40%-69% of herbicidal efficacy or phytotoxicity)
False pimpernel pre (herbicidal efficacy grade) (false pimpernel [5]; dosage 300 g/ha): 4 (90%-100% of herbicidal efficacy or phytotoxicity)
Bulrush post (herbicidal efficacy grade) (bulrush [3]; [9]): 4 (90%-100% of herbicidal efficacy or phytotoxicity)
Bulrush pre (herbicidal efficacy grade) (bulrush [4]; dosage 300 g/ha): 4 (90%-100% of herbicidal efficacy or phytotoxicity)

CCC1OC(=O)N(Cc2ccccc2N(C(=O)OCC(C)C)S(=O)(=O)C(F)(F)F)C1=O (stereo not shown) [Compound 1-193]
Phytotoxicity to paddy rice ([1]; dosage 300 g/ha): 0 (0% of herbicidal efficacy or phytotoxicity)
False pimpernel post (herbicidal efficacy grade) (false pimpernel [2]; [9]): 1 (1%-39% of herbicidal efficacy or phytotoxicity)
False pimpernel pre (herbicidal efficacy grade) (false pimpernel [5]; dosage 300 g/ha): 4 (90%-100% of herbicidal efficacy or phytotoxicity)
Bulrush post (herbicidal efficacy grade) (bulrush [3]; [9]): 4 (90%-100% of herbicidal efficacy or phytotoxicity)
Bulrush pre (herbicidal efficacy grade) (bulrush [4]; dosage 300 g/ha): 4 (90%-100% of herbicidal efficacy or phytotoxicity)

CCOC1N(Cc2ccccc2NS(=O)(=O)C(F)(F)F)C(=O)OC1(C)C (stereo not shown) [Compound 1-198]
Phytotoxicity to paddy rice ([1]; dosage 300 g/ha): 2 (40%-69% of herbicidal efficacy or phytotoxicity)
Bulrush pre (herbicidal efficacy grade) (bulrush [4]; dosage 300 g/ha): 4 (90%-100% of herbicidal efficacy or phytotoxicity)
